The values below come from ChEMBL document CHEMBL1759872, “Small-molecule probe using dual signals to monitor leucine aminopeptidase activity” (Bioorg Med Chem Lett, 2011).

For one series, the species on record is Sus scrofa. The experiment in a line: Activity at pig kidney LAP after 40 mins by Michaelis-Menten equation. It is filed as tissue-based.
Series [1] relates to HCT-116. The experiment in a line: Drug uptake in human HCT116 cells at 20 uM after 20 mins by DAPI staining based microscopic analysis. It is filed as ADME, cell-based. The note with it: hct-116, 20 min.
Series [2] can be described thus: Competitive inhibition of pig kidney LAP activity using l-Leucine-p-nitroanilide as substrate after 10 mins by Michaelis-Menten equation.
A short description of series [3]: Competitive inhibition of pig kidney LAP activity using N-(6-Methoxypyridine-3-yl), (S)-2-amino-4-methylpentanamide as substrate after 10 mins by Michaelis-Menten equation.
Series [4] is described as follows: Competitive inhibition of pig kidney LAP activity using DCDHF-Leu as substrate after 10 mins by Michaelis-Menten equation.
Series [5] deals with HCT-116. The experiment in a line: Drug uptake in human HCT116 cells at 20 uM after 20 mins by DAPI staining based microscopic analysis in presence of bestatin. Type of series: ADME, cell-based. As to conditions: hct-116, 20 min; call rule not given here.

With `CC(C)C[C@H](N)C(=O)Nc1ccc([N+](=O)[O-])cc1`, in the series listed under Sus scrofa, the Km turned out to be 3000 µM and the Vmax was determined as 3.9 µmol/min/mg.

For the compound `CC1(C)OC(=C(C#N)C#N)C(C#N)=C1/C=C/c1ccc(N)cc1`, the Drug uptake result in the series with HCT-116 [1] was “Active”.

Turning to `COc1ccc(NC(=O)[C@@H](N)CC(C)C)cn1`, in the series listed under Sus scrofa, the Km stood at 65 µM and the maximum rate (Vmax) amounted to 7.7 µmol/min/mg.

For `CC(C)C[C@H](NC(=O)[C@@H](O)[C@H](N)Cc1ccccc1)C(=O)O` [UBENIMEX], the figures for the half-inhibitory concentration (IC50) in series [2], in series [3] and in series [4] were 25 µM, 7 µM and 4.41 µM, respectively.

As for `CC(C)C[C@H](N)C(=O)Nc1ccc(/C=C/C2=C(C#N)C(=C(C#N)C#N)OC2(C)C)cc1`, in the series listed under Sus scrofa, the Km is 8.87 µM and the Vmax is 6.64 µmol/min/mg. The Drug uptake result with HCT-116 [5] was “Not Active”. In the series with HCT-116 [1], the “fold change (FC)” value is reported as 6.
